The supplement of paper PMC11061612

Key:
Assay in all cases: Bliss excess, mean over the matrix (fraction); higher = more synergy
[1] = system: 23132-87 (Gastric Carcinoma)
In short: (§1)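 Cell lines in DMEM/F12 or RPMI with 10% FBS were plated in 1536-well plates, held 24 hours at 37°C, 5% CO2, then given two-drug dose matrices for 72 hours (DMSO typically 0.2%). Viability was read by CellTiter-Glo 2.0 luminescence and scaled as inhibition from 0 (vehicle wells) to 1 (blank wells). Combination Emax is the second-highest inhibition in the matrix; Bliss excess is observed combination effect minus expected EA + EB − EA·EB, EA and EB being single-agent effects.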

A2058 (Melanoma) = system: A2058 (Melanoma)
In short: as §1

[2] = system: CAL-120 (Breast Carcinoma)
In short: as §1

[3] = system: CAL-62 (Thyroid Gland Carcinoma)
In short: as §1

[4] = system: COLO-680N (Esophageal Squamous Cell Carcinoma)
In short: as §1

[5] = system: KE-37 (T-Lymphoblastic Leukemia)
In short: as §1

[6] = system: L-1236 (Hodgkin's Lymphoma)
In short: as §1

[7] = system: LB996-RCC (Kidney Carcinoma)
In short: as §1

[8] = system: LK-2 (Squamous Cell Lung Carcinoma)
In short: as §1

[9] = system: LXF-289 (Lung Adenocarcinoma)
In short: as §1

[10] = system: NCI-H2342 (Lung Adenocarcinoma)
In short: as §1

[11] = system: OAW-42 (Ovarian Carcinoma)
In short: as §1

[12] = system: OPM-2 (Plasma Cell Myeloma)
In short: as §1

[13] = system: PANC-03-27 (Pancreatic Carcinoma)
In short: as §1

[14] = system: PC-3_[JPC-3] (Lung Adenocarcinoma)
In short: as §1

[15] = system: RCM-1 (Colorectal Carcinoma)
In short: as §1

[16] = system: RERF-GC-1B (Gastric Carcinoma)
In short: as §1

[17] = system: RERF-LC-Sq1 (Squamous Cell Lung Carcinoma)
In short: as §1

[18] = system: SHP-77 (Small Cell Lung Carcinoma)
In short: as §1

[19] = system: TE-8 (Esophageal Squamous Cell Carcinoma)
In short: as §1

Compound	Bliss excess [1]	Bliss excess (A2058 (Melanoma))	Bliss excess [2]	Bliss excess [3]	Bliss excess [4]	Bliss excess [5]	Bliss excess [6]	Bliss excess [7]	Bliss excess [8]	Bliss excess [9]	Bliss excess [10]	Bliss excess [11]	Bliss excess [12]	Bliss excess [13]	Bliss excess [14]	Bliss excess [15]	Bliss excess [16]	Bliss excess [17]	Bliss excess [18]	Bliss excess [19]
Cc1c2c(nn1C)CSCc1cc(n(C)n1)CSc1cc(c3ccccc3c1)OCCCc1c(C(=O)O)n(C)c3c-2c(Cl)ccc13 [AZD5991] + Cn1cnc2c(F)c(Nc3ccc(Br)cc3Cl)c(C(=O)NOCCO)cc21 [Selumetinib] (first compound max 1 µM, 7x7, partner max 3 µM)	0.0334	0.213	-0.0105	-0.0174	-0.0091	0.0278	0	0.0053	-0.0063	0.0414	-0.0673	0.0218	0.0231	-0.0414	-0.0477	0.0025	0.034	0.0048	0.0623	-0.0435
COc1nnc2ccc(N3CCC(c4ccc(OCCN5CCN(C)C(=O)[C@H]5C)cc4)CC3)nn12 [AZD5153] + CC1(C)CCC(CN2CCN(c3ccc(C(=O)NS(=O)(=O)c4ccc(NCC5CCOCC5)c([N+](=O)[O-])c4)c(Oc4cnc5[nH]ccc5c4)c3)CC2)=C(c2ccc(Cl)cc2)C1 [Venetoclax] (first compound max 1 µM, 7x7, partner max 1 µM)	-0.0697	-0.0876	-0.0434	-0.0461	-0.0372	-0.0133	0.0177	-0.0178	-0.0015	-0.009	-0.0384	-0.0201	0.0082	-0.0422	-0.111	-0.0191	-0.0442	-0.0246	0.0049	-0.0838
CS(=O)(=O)CCNCc1ccc(-c2ccc3ncnc(Nc4ccc(OCc5cccc(F)c5)c(Cl)c4)c3c2)o1 [Lapatinib] + C[C@@H](Oc1cc(-c2cnn(C3CCNCC3)c2)cnc1N)c1c(Cl)ccc(F)c1Cl [Crizotinib] (first compound max 10 µM, 7x7, partner max 10 µM)	0.0195	-0.0237	0.0084	-0.0436	-0.017	0.0236	0.0239	-0.0196	0.0067	-0.0848	-0.0006	-0.0033	-0.0611	-0.0111	-0.0824	-0.0107	-0.0237	-0.039	-0.0004	-0.0294
Cn1cnc2c(F)c(Nc3ccc(Br)cc3Cl)c(C(=O)NOCCO)cc21 [Selumetinib] + C=CCn1c(=O)c2cnc(Nc3ccc(N4CCN(C)CC4)cc3)nc2n1-c1cccc(C(C)(C)O)n1 [AZD1775] (first compound max 10 µM, partner max 1 µM)	-0.0804	-0.029	-0.0502	0.0273	0.0147	0.0083	-0.0131	-0.0886	-0.0356	-0.0547	-0.0366	-0.0694	-0.0124	-0.0164	-0.0332	-0.0359	0.025	-0.0617	0.0141	0.0076
CC1(C)CCC(CN2CCN(c3ccc(C(=O)NS(=O)(=O)c4ccc(NCC5CCOCC5)c([N+](=O)[O-])c4)c(Oc4cnc5[nH]ccc5c4)c3)CC2)=C(c2ccc(Cl)cc2)C1 [Venetoclax] + C1CN(CCC1(C(=O)N[C@@H](CCO)C2=CC=C(C=C2)Cl)N)C3=NC=NC4=C3C=CN4 [Capivasertib] (first compound max 1 µM, 7x7, partner max 3 µM)	-0.0427	-0.0333	-0.0198	-0.0409	-0.0482	0.012	-0.0739	-0.0573	-0.0122	-0.0275	-0.0359	-0.0539	0.0534	-0.0881	-0.0399	-0.0293	-0.0297	-0.0391	-0.0797	-0.0569
COc1cc2ncnc(Nc3ccc(F)c(Cl)c3)c2cc1OCCCN1CCOCC1 [Gefitinib] + CC(C)n1c(=O)n(C)c2cnc3cc(F)c(-c4ccc(OCCCN5CCCCC5)nc4)cc3c21 [AZD1390] (first compound max 10 µM, 7x7, partner max 0.3 µM)	-0.025	-0.0343	-0.0446	-0.0451	-0.0252	-0.0791	-0.0467	-0.0069	0.0037	-0.0717	-0.052	-0.0384	-0.0151	-0.0223	-0.03	-0.0395	-0.092	-0.0938	-0.0471	-0.075
COc1nnc2ccc(N3CCC(c4ccc(OCCN5CCN(C)C(=O)[C@H]5C)cc4)CC3)nn12 [AZD5153] + CCN(CCO)CCCOc1ccc2c(Nc3cc(CC(=O)Nc4cccc(F)c4)[nH]n3)ncnc2c1 [AZD2811] (first compound max 1 µM, 7x7, partner max 1 µM)	-0.0223	0.0568	0.0045	-0.0497	-0.0833	-0.0085	-0.027	-0.106	-0.282	0.0227	-0.01	-0.0491	0.0194	-0.0487	-0.0306	-0.03	-0.096	0.0063	-0.0325	-0.0152
CC1(C)CCC(CN2CCN(c3ccc(C(=O)NS(=O)(=O)c4ccc(NCC5CCOCC5)c([N+](=O)[O-])c4)c(Oc4cnc5[nH]ccc5c4)c3)CC2)=C(c2ccc(Cl)cc2)C1 [Venetoclax] + COc1cc(Nc2ncc3c(n2)-c2ccc(Cl)cc2C(c2c(F)cccc2OC)=NC3)ccc1C(=O)O [Alisertib] (first compound max 1 µM, 7x7, partner max 10 µM)	-0.0303	-0.0871	-0.0182	-0.0092	-0.0427	-0.0545	-0.05	-0.0096	-0.035	-0.0953	-0.0792	-0.079	0.272	-0.0236	-0.0502	-0.0717	-0.0274	-0.0289	0.241	0.0171
COc1cccc(OCCCN)c1-c1cc(Nc2cnc(C#N)cn2)n[nH]1 [Prexasertib] + CCc1c2c(nc3ccc(O)cc13)-c1cc3c(c(=O)n1C2)COC(=O)[C@]3(O)CC [SN-38] (first compound max 1 µM, 7x7, partner max 0.3 µM)	-0.0307	0.123	0.0574	-0.0543	0.0609	-0.0182	-0.0584	-0.0334	0.0915	-0.0201	-0.0703	-0.0263	-0.0125	-0.0381	-0.0729	-0.0729	0.0318	-0.0081	0.121	0.0456
CC(=O)c1c(C)c2cnc(Nc3ccc(N4CCNCC4)cn3)nc2n(C2CCCC2)c1=O [Palbociclib] + Cn1cnc2c(F)c(Nc3ccc(Br)cc3Cl)c(C(=O)NOCCO)cc21 [Selumetinib] (first compound max 10 µM, 7x7, partner max 10 µM)	-0.0683	0.0131	-0.0361	0.0248	-0.0207	0.0207	-0.0841	-0.0426	0.0281	-0.0054	-0.0441	-0.0555	0.0343	-0.0015	-0.0288	-0.0286	-0.0329	-0.0488	0.0052	-0.0454
CC1(C)CCC(CN2CCN(c3ccc(C(=O)NS(=O)(=O)c4ccc(NCC5CCOCC5)c([N+](=O)[O-])c4)c(Oc4cnc5[nH]ccc5c4)c3)CC2)=C(c2ccc(Cl)cc2)C1 [Venetoclax] + C[C@@H](Nc1cc(F)cc(F)c1)c1cc(C(=O)N(C)C)cc2c(=O)cc(N3CCOCC3)oc12 [AZD8186] (first compound max 1 µM, 7x7, partner max 3 µM)	-0.036	-0.0031	-0.0194	-0.0173	-0.0276	0.0385	-0.0261	0.0035	-0.0234	-0.0008	-0.0643	-0.047	-0.0134	-0.0415	-0.0326	-0.0495	-0.028	-0.0242	0.0205	-0.0522
CC1(C)CCC(CN2CCN(c3ccc(C(=O)NS(=O)(=O)c4ccc(NCC5CCOCC5)c([N+](=O)[O-])c4)c(Oc4cnc5[nH]ccc5c4)c3)CC2)=C(c2ccc(Cl)cc2)C1 [Venetoclax] + C=CCn1c(=O)c2cnc(Nc3ccc(N4CCN(C)CC4)cc3)nc2n1-c1cccc(C(C)(C)O)n1 [AZD1775] (first compound max 1 µM, partner max 1 µM)	-0.0277	-0.0886	-0.0309	0.0452	-0.0402	0.0083	0.0035	-0.0466	0.012	-0.0515	-0.0184	-0.0283	0.0966	0.035	-0.0736	0.0294	-0.112	-0.0437	0.0141	-0.0071
